{
  "source": "ChEMBL document CHEMBL4382198",
  "about": "“Discovery of Risdiplam, a Selective Survival of Motor Neuron-2 ( SMN2) Gene Splicing Modifier for the Treatment of Spinal Muscular Atrophy (SMA)” (J Med Chem, 2018)",
  "key": {"[1]": {"experiment": "Volume of distribution at steady state in rat at 1.9 mg/kg, iv administered as single dose", "assay_type": "ADME, organism-based", "details": "in vivo, read-out: Vdss"}, "[2]": {"target": "Survival motor neuron protein (Homo sapiens) (UniProt Q16637)", "sequence (Q16637 whole entry)": "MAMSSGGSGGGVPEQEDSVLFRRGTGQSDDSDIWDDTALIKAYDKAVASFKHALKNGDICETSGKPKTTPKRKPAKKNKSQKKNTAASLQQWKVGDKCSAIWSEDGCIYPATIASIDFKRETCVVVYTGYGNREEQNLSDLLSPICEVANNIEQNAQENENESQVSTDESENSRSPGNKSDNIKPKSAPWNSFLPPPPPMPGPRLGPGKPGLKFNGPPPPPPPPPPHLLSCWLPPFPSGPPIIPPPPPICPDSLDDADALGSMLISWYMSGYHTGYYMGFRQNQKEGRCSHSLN", "experiment": "Activation of SMN protein in human SMA-derived fibroblasts after 48 hrs by HTRF assay"}, "[3]": {"experiment": "Chronic toxicity in retina of po dosed cynomolgus monkey assessed as formation of microcystic spaces in the inner retinal layers after 39 weeks by OCT analysis", "assay_type": "organism-based, Macaca fascicularis", "details": "in vivo, 6552 h"}, "[4]": {"experiment": "Toxicity in po dosed cynomolgus monkey assessed phospholipidosis administered via gavage up to 39 weeks", "assay_type": "organism-based, Macaca fascicularis", "details": "in vivo, 6552 h"}, "Mus musculus [5]": {"system": "Mus musculus", "experiment": "In-vivo stabilization of SMN2 mRNA in SMA neonatal delta7 mouse model assessed as increase in SMN protein levels in quadriceps at 1 mg/kg, ip dosed once daily starting from postnatal day 3 to postnatal day 9 relative to control", "assay_type": "functional"}, "[6]": {"experiment": "Effect on FOXM1b/c mRNA splicing in cynomolgus monkey induced pluripotent stem cells by RT-qPCR analysis", "assay_type": "ADME, Macaca fascicularis", "details": "Macaca fascicularis"}, "Mus musculus [7]": {"system": "Mus musculus", "experiment": "In-vivo stabilization of SMN2 mRNA in SMA neonatal delta7 mouse model assessed as increase in SMN protein levels in brain at 10 mg/kg, ip dosed once daily starting from postnatal day 3 to postnatal day 9 relative to control", "assay_type": "functional"}, "[8]": {"experiment": "Chronic toxicity in retina of po dosed cynomolgus monkey assessed as formation of scotopic depressed B-waves after 39 weeks by ERG analysis", "assay_type": "organism-based, Macaca fascicularis", "details": "in vivo, 6552 h"}, "[9]": {"experiment": "Volume of distribution at steady state in cynomolgus monkey at 0.1 mg/kg, iv administered as single dose", "assay_type": "ADME, organism-based, Macaca fascicularis", "details": "in vivo, read-out: Vdss"}, "[10]": {"experiment": "Effect on human FOXM1a mRNA splicing expressed in human SMA-derived fibroblasts by RT-qPCR analysis", "assay_type": "ADME"}, "[11]": {"experiment": "Half life in rat at 5.5 mg/kg, po administered as single dose", "assay_type": "ADME, organism-based", "details": "in vivo"}, "[12]": {"experiment": "Chronic toxicity in retina of po dosed cynomolgus monkey assessed as multifocal peripheral retina degeneration after 39 weeks by OCT analysis", "assay_type": "organism-based, Macaca fascicularis", "details": "in vivo, 6552 h"}, "[13]": {"experiment": "Toxicity in po dosed rat assessed phospholipidosis administered via gavage up to 26 weeks", "assay_type": "organism-based", "details": "in vivo, 4368 h"}, "Mus musculus [14]": {"system": "Mus musculus", "experiment": "In-vivo stabilization of SMN2 mRNA in SMA neonatal delta7 mouse model assessed as increase in SMN protein levels in brain at 0.1 mg/kg, ip dosed once daily starting from postnatal day 3 to postnatal day 9 relative to control", "assay_type": "functional"}, "[15]": {"experiment": "Chronic toxicity in retina of po dosed cynomolgus monkey assessed as excess vacuolation of inner nuclear layer after 39 weeks by histological analysis", "assay_type": "organism-based, Macaca fascicularis", "details": "in vivo, 6552 h"}, "[16]": {"experiment": "AUC (0 to 24 hrs) in SMA neonatal delta7 mouse model at 0.1 mg/kg, ip dosed once daily starting from postnatal day 3 to postnatal day 9", "assay_type": "ADME, organism-based", "design": "time < 24 hr, dose 0.1 mg/kg, route intraperitoneal", "details": "in vivo"}, "[17]": {"experiment": "Fraction unbound in human plasma", "assay_type": "ADME, cell-free"}, "[18]": {"experiment": "Clearance in rat at 1.9 mg/kg, iv administered as single dose", "assay_type": "ADME, organism-based", "details": "in vivo"}, "Mus musculus [19]": {"system": "Mus musculus", "experiment": "In-vivo stabilization of SMN2 mRNA in SMA adult C/C allele mouse model assessed as increase in SMN protein levels in brain at 10 mg/kg, po dosed once daily for 10 days relative to control", "assay_type": "functional"}, "[20]": {"experiment": "Chronic toxicity in retina of po dosed cynomolgus monkey assessed as effect on outer nuclear layers after 39 weeks by histological analysis", "assay_type": "organism-based, Macaca fascicularis", "details": "in vivo, 6552 h"}, "[21]": {"experiment": "Cardiotoxicity in cynomolgus monkey assessed as prolongation of QTc interval time", "assay_type": "toxicity, Macaca fascicularis"}, "[22]": {"experiment": "Fraction unbound in mouse plasma", "assay_type": "ADME, cell-free"}, "Mus musculus [23]": {"system": "Mus musculus", "experiment": "In-vivo stabilization SMN2 mRNA in SMA delta7 ip dosed mouse assessed as increase in percentage of fully innervated NMJs dosed daily starting from postnatal day 3 to postnatal day 14 by immunohistochemistry", "assay_type": "functional, organism-based"}, "[24]": {"experiment": "Oral bioavailability in rat at 5.5 mg/kg administered as single dose", "assay_type": "ADME, organism-based", "details": "in vivo"}, "[25]": {"experiment": "Chronic toxicity in retina of po dosed cynomolgus monkey assessed as effect on photo-receptor layers after 39 weeks by histological analysis", "assay_type": "organism-based, Macaca fascicularis", "details": "in vivo, 6552 h"}, "Mus musculus [26]": {"system": "Mus musculus", "experiment": "In-vivo stabilization SMN2 mRNA in SMA delta7 ip dosed mouse assessed as increase in muscle size dosed daily starting from postnatal day 3 to postnatal day 14 by immunohistochemistry", "assay_type": "functional, organism-based"}, "Mus musculus [27]": {"system": "Mus musculus", "experiment": "In-vivo stabilization of SMN2 mRNA in SMA adult C/C allele mouse model assessed as increase in SMN protein levels in brain at 1 mg/kg, po dosed once daily for 10 days relative to control", "assay_type": "functional"}, "[28]": {"experiment": "Efflux ratio of permeability in human SMA-derived fibroblasts", "assay_type": "ADME, cell-based, Fibroblast", "details": "not told"}, "[29]": {"experiment": "AUC (0 to 24 hrs) in SMA adult C/C allele mouse model at 1 mg/kg, po dosed once daily for 10 days", "assay_type": "ADME, organism-based", "design": "dose 1 mg/kg, time < 24 hr, route oral", "details": "in vivo"}, "Mus musculus [30]": {"system": "Mus musculus", "experiment": "In-vivo stabilization SMN2 mRNA in SMA delta7 ip dosed mouse assessed as increase in number of vGlut1 inputs in L3 to L5 spinal cord dosed daily starting from postnatal day 3 to postnatal day 14 by immunohistochemistry", "assay_type": "functional, organism-based"}, "Mus musculus [31]": {"system": "Mus musculus", "experiment": "In-vivo stabilization of SMN2 mRNA in SMA adult C/C allele mouse model assessed as increase in SMN protein levels in quadriceps at 1 mg/kg, po dosed once daily for 10 days relative to control", "assay_type": "functional"}, "Mus musculus [32]": {"system": "Mus musculus", "experiment": "In-vivo stabilization SMN2 mRNA in SMA delta7 ip dosed mouse assessed as increased muscle size in the EDL dosed daily starting from postnatal day 3 to postnatal day 14 by immunohistochemistry", "assay_type": "functional, organism-based"}, "[33]": {"experiment": "Stabilization of human […] mRNA splicing expressed in human SMA-derived fibroblasts at 121 to 605 nM by RT-qPCR analysis", "assay_type": "ADME", "details": "0.605 µM"}, "[34]": {"experiment": "Clearance in cynomolgus monkey at 0.1 mg/kg, iv administered as single dose", "assay_type": "ADME, organism-based, Macaca fascicularis", "details": "in vivo"}, "[35]": {"experiment": "Half life in cynomolgus monkey at 0.5 mg/kg, po administered as single dose", "assay_type": "ADME, organism-based, Macaca fascicularis", "details": "in vivo"}, "hERG (KCNH2)": {"target": "hERG (KCNH2) (Homo sapiens, UniProt Q12809)", "sequence (Q12809 whole entry)": "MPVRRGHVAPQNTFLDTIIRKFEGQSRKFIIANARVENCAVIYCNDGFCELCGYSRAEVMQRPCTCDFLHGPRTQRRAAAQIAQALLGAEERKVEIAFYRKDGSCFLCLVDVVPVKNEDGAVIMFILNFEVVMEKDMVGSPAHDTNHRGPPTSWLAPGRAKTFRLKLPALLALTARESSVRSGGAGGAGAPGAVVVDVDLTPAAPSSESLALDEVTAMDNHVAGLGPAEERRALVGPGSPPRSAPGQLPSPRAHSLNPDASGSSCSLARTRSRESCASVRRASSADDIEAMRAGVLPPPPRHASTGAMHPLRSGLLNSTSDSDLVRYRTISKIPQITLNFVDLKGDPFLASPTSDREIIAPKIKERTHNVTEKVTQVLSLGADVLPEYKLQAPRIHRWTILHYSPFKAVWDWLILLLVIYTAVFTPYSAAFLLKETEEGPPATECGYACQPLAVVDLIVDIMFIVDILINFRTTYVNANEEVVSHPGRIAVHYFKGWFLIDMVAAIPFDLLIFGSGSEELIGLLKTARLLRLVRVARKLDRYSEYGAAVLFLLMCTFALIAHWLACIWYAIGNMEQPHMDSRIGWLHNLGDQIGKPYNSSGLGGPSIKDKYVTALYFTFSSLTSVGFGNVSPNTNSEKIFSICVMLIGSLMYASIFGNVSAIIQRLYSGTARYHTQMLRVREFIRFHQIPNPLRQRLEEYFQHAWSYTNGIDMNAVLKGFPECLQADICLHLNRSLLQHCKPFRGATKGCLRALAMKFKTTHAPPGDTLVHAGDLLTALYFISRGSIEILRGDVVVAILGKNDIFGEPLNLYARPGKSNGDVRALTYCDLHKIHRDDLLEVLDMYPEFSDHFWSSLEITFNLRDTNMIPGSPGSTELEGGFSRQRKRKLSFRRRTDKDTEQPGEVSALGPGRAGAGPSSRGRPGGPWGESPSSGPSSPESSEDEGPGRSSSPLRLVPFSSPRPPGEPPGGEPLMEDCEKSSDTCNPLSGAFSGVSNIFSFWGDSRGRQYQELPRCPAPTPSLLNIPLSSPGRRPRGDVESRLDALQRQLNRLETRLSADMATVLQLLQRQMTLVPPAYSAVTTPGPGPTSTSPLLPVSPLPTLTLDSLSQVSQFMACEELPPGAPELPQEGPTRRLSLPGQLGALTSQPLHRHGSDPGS", "experiment": "Inhibition of human ERG at 37 degC", "details": "human"}, "Mus musculus [36]": {"system": "Mus musculus", "experiment": "In-vivo stabilization of SMN2 mRNA in SMA neonatal delta7 mouse model assessed as increase in SMN protein levels in quadriceps at 0.3 mg/kg, ip dosed once daily starting from postnatal day 3 to postnatal day 9 relative to control", "assay_type": "functional"}, "Mus musculus [37]": {"system": "Mus musculus", "experiment": "In-vivo stabilization of SMN2 mRNA in SMA neonatal delta7 mouse model assessed as increase in SMN protein levels in quadriceps at 0.1 mg/kg, ip dosed once daily starting from postnatal day 3 to postnatal day 9 relative to control", "assay_type": "functional"}, "NIH3T3": {"system": "NIH3T3", "experiment": "Phototoxicity in mouse 3T3 cells assessed as decrease in cell viability at 9 uM in presence of UV light by neutral red uptake assay", "assay_type": "cell-based", "details": "nih3t3, 9 µM"}, "Mus musculus [38]": {"system": "Mus musculus", "experiment": "In-vivo stabilization of SMN2 mRNA in SMA neonatal delta7 mouse model assessed as increase in SMN protein levels in brain at 0.3 mg/kg, ip dosed once daily starting from postnatal day 3 to postnatal day 9 relative to control", "assay_type": "functional"}, "[39]": {"experiment": "Stabilization of human STRN3 mRNA splicing expressed in human SMA-derived fibroblasts at 121 to 605 nM by RT-qPCR analysis", "assay_type": "ADME", "details": "0.605 µM"}},
  "data": [
    {"smiles": "Cc1cn2nc(-c3cc(=O)n4cc(N5CCNC6(CC6)C5)ccc4n3)cc(C)c2n1", "values": [
      {"measurement": "Vd", "setting": "[1]", "result": 3.1, "unit": "L/kg"},
      {"measurement": "EC1.5", "setting": "[2]", "result": 29, "unit": "nM"},
      {"measurement": "Activity", "setting": "[3]", "result": "Toxic"},
      {"measurement": "Activity", "setting": "[4]", "result": "Non-Toxic"},
      {"measurement": "Activity", "setting": "Mus musculus [5]", "result": 210, "unit": "%"},
      {"measurement": "IC50", "setting": "[6]", "result": 155, "unit": "nM"},
      {"measurement": "Activity", "setting": "Mus musculus [7]", "result": 202, "unit": "%"},
      {"measurement": "Activity", "setting": "[8]", "result": "Toxic"},
      {"measurement": "pKa", "setting": "physchem", "result": 6.8},
      {"measurement": "Vd", "setting": "[9]", "result": 2, "unit": "L/kg"},
      {"measurement": "EC50", "setting": "[10]", "result": 67, "unit": "nM"},
      {"measurement": "half-life", "setting": "[11]", "result": 6.4, "unit": "h"},
      {"measurement": "Activity", "setting": "[12]", "result": "Toxic"},
      {"measurement": "Activity", "setting": "[13]", "result": "Non-Toxic"},
      {"measurement": "Activity", "setting": "Mus musculus [14]", "result": 28, "unit": "%"},
      {"measurement": "Activity", "setting": "[15]", "result": "Toxic"},
      {"measurement": "AUC at 24 h", "setting": "[16]", "result": 2200, "unit": "ng·h/mL"},
      {"measurement": "fraction unbound", "setting": "[17]", "result": 0.11},
      {"measurement": "clearance", "setting": "[18]", "result": 8.9, "unit": "mL/min/kg"},
      {"measurement": "Activity", "setting": "Mus musculus [19]", "result": 100, "unit": "%"},
      {"measurement": "Activity", "setting": "[20]", "result": "Toxic"},
      {"measurement": "Activity", "setting": "[21]", "result": "Non-Toxic"},
      {"measurement": "fraction unbound", "setting": "[22]", "result": 0.1},
      {"measurement": "Activity", "setting": "Mus musculus [23]", "result": "Dose-dependent effect"},
      {"measurement": "bioavailability", "setting": "[24]", "result": 100, "unit": "%"},
      {"measurement": "Activity", "setting": "[25]", "result": "Toxic"},
      {"measurement": "Activity", "setting": "Mus musculus [26]", "result": "Dose-dependent effect"},
      {"measurement": "Activity", "setting": "Mus musculus [27]", "result": 0, "unit": "%"},
      {"measurement": "efflux ratio", "setting": "[28]", "result": 2.2},
      {"measurement": "AUC at 24 h", "setting": "[29]", "result": 9000, "unit": "ng·h/mL"},
      {"measurement": "Activity", "setting": "Mus musculus [30]", "result": "Dose-dependent effect"},
      {"measurement": "Activity", "setting": "Mus musculus [31]", "result": 0, "unit": "%"},
      {"measurement": "Activity", "setting": "Mus musculus [32]", "result": "Dose-dependent effect"},
      {"measurement": "Activity", "setting": "[33]", "result": "Non-Toxic"},
      {"measurement": "clearance", "setting": "[34]", "result": 5.7, "unit": "mL/min/kg"},
      {"measurement": "half-life", "setting": "[35]", "result": 5.4, "unit": "h"},
      {"measurement": "IC20", "setting": "hERG (KCNH2)", "result": "> 5000", "unit": "nM"},
      {"measurement": "Activity", "setting": "Mus musculus [36]", "result": 64, "unit": "%"},
      {"measurement": "Activity", "setting": "Mus musculus [37]", "result": 32, "unit": "%"},
      {"measurement": "Activity", "setting": "NIH3T3", "result": "Non-Toxic"},
      {"measurement": "Activity", "setting": "Mus musculus [38]", "result": 90, "unit": "%"},
      {"measurement": "Activity", "setting": "[39]", "result": "Non-Toxic"}
    ]}
  ]
}
